Experimental data from paper PMC11243039, “Antimicrobial, Antioxidant, and Antityrosinase Activities of Morina persica L. and Its Isolated Compounds” (Molecules, 2024).
Values after ≈ are worked out from the molar mass of the structure shown.

Target: T1, mushroom tyrosinase
T1 construct: gene PPO3; native mushroom enzyme preparation
Assay: absorbance at […] nm, L-DOPA oxidation (modified Masuda method)
Type: biochemical
Conditions: L-DOPA substrate, phosphate buffer pH 6.8, 23 °C, 10 min preincubation

Structure (SMILES)	IC50 [µg/mL]
O=c1c(O[C@@H]2O[C@H](CO)[C@@H](O)[C@H](O)[C@H]2O)c(-c2ccc(O)cc2)oc2cc(O)cc(O)c12 [MP-1, Kaempferol-3-O-β-glucopyranoside]	297.9 ± 1.2 (≈ 664 µM)
C[C@@H]1O[C@@H](OC[C@H]2O[C@@H](Oc3c(-c4ccc(O)c(O)c4)oc4cc(O)cc(O)c4c3=O)[C@H](O)[C@@H](O)[C@@H]2O)[C@H](O)[C@H](O)[C@H]1O [MP-2, Quercetin-3-O-rutinoside]	115.2 ± 0.8 (≈ 189 µM)
